The values that follow come from the Kinase Knowledgebase extract (Sharma et al. 2016).

As a reminder, the IC50 is the concentration needed to halve the response being measured. A higher IC50 goes with weaker potency in that assay.

The target in the experiment is MAPK14 (human) (UniProt Q16539). Put plainly: TNF-alpha Release Inhibition (LPS-stimulated PBMCs). The note with it: pbmc.
Sequence of MAPK14 (human) (Q16539 whole entry, looked up): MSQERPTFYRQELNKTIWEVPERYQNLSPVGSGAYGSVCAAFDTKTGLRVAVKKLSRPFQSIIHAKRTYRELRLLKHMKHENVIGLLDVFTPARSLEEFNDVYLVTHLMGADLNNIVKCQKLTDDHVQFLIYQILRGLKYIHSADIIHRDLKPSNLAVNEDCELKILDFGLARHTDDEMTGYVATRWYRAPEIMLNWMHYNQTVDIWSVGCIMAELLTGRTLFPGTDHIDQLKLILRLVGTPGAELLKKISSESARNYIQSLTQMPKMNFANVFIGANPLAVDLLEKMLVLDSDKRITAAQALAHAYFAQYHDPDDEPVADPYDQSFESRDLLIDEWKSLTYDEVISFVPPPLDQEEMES
Regarding `COc1ccc2c(-c3ccncc3)c(-c3ccc(F)cc3)[nH]c2c1`, the IC50 stood at 400 nM.
As for `COc1ccc2c(-c3ccncc3)c(-c3cccc(I)c3)[nH]c2c1`, the IC50 worked out at 100 nM.
Regarding `CCCCOc1cc(OC)nc2[nH]c(-c3ccc(F)cc3)c(-c3ccncc3)c12`, the IC50 was 6 nM.
`Fc1ccc(-c2[nH]c3ccccc3c2-c2ccncc2)cc1` displayed an IC50 greater than 10000 nM.
Then `COc1ccc2c(-c3ccncc3)c(-c3cccc(Cl)c3)[nH]c2c1`, with 125 nM.
The same measure for `CCCCOc1cc(O)nc2[nH]c(-c3ccc(F)cc3)c(-c3ccncc3)c12`: 15 nM; for `Oc1ccc2c(-c3ccncc3)c(-c3ccc(F)cc3)[nH]c2n1`: greater than 10000 nM.
Then `COc1ccc2c(-c3ccncc3)c(-c3ccc(I)cc3)[nH]c2c1`, with 6500 nM; and `Fc1ccc(-c2[nH]c3nc(NCc4ccccc4)ccc3c2-c2ccncc2)cc1`, with 300 nM.
In turn, `CC(=O)Nc1ccc2c(-c3ccncc3)c(-c3ccc(F)cc3)[nH]c2n1` registered a concentration for half-maximal inhibition (IC50) of 100 nM. Against the preceding compound, the IC50 is about 3-fold lower.
Then `Nc1cc(OCc2ccc(F)cc2)c2c(-c3ccncc3)c(-c3ccc(F)cc3)[nH]c2n1`, with 2 nM.
Consider `COc1ccc2c(-c3ccncc3)c(-c3cccc(F)c3)[nH]c2c1`, for which the concentration for half-maximal inhibition (IC50) worked out at 300 nM.
The compound `CCOc1ccc(-c2[nH]c3nc(N)ccc3c2-c2ccncc2)cc1Cl` returned an IC50 of 60 nM.
Compound `Nc1ccc2c(-c3ccncc3)c(-c3cccc(Cl)c3)[nH]c2n1` gave an IC50 of 9 nM. This IC50 is about 6.7-fold lower than that of the compound before.
Then `Nc1ccc2c(-c3ccncc3)c(-c3ccc(F)cc3)[nH]c2c1`, with 200 nM; and `Fc1ccc(-c2[nH]c3ncccc3c2-c2ccncc2)cc1`, with 400 nM.
Compound `Nc1ccc2c(-c3ccncc3)c(-c3cccc(I)c3)[nH]c2n1` returned an IC50 of 40 nM. Compared with the last compound, the IC50 is about 10-fold lower.
For `CN(C)c1ccc2c(-c3ccncc3)c(-c3ccc(F)cc3)[nH]c2n1`, the 50% inhibitory concentration (IC50) was found to be 400 nM.
The compound `Nc1ccc2c(-c3ccncc3)c(-c3ccc(F)c(F)c3)[nH]c2n1` came in with an IC50 of 30 nM. Against the preceding compound, the IC50 is about 13-fold lower.
The compound `COc1ccc2c(-c3ccncc3)c(-c3ccc(F)cc3)[nH]c2n1` yielded an IC50 of 200 nM. Compared with the last compound, the IC50 is about 6.7-fold higher.
